The record followed here is patent US10633630B2, “Acceleration of Mycobacterium growth” (ST GEORGE'S HOSPITAL MEDICAL SCHOOL, priority 2014, dated 2020).

Test [1] has as its system Mycobacterium avium subspecies paratuberculosis (MAP). In words: Screen of TiKa peptide supplements for growth effects on MAP cultures (Example 1). The class given is cell-based. The conditions noted are these: supplemented at 20 mg/ml (final); over a 20 day period; vs identical inocula with no added supplement. Here is the method: FX1=reduction in lag phase, FX2=increase in division rate.
The lag phase and division rate can be determined using routine methods in the art. Typically, growth and expansion of cells of a bacterial culture is determined by monitoring the optical density (OD) of the culture (e.g. the OD600 or the OD800 as illustrated in the Examples section below). The lag phase and the division rate can be determined from plots of the OD over time.
Using Mycobacterium avium subspecies paratuberculosis (MAP) as a target organism a bank of 109 short L enantiomer peptides and one D enantiomer peptide (TiKa 14D) were screened for the ability to supplement defined media (see below) to produce growth effects that produce biomass more rapidly than identical inocula of MAP with no added supplement.
The effects can be defined as: • A significant decrease in lag time (i.e the time it takes to recover from subculture and begin growing exponentially). With standard low inoculum this is at least 5 days but there is evidence that this phase can also be greatly extended in low inocula (see FIGS. 3 and 4). • An increase in division rate.

Test [2] is described as follows: Growth curves at various concentrations of peptide (Example 5). The class given is cell-based. The conditions noted are these: for doubling time relative to the control / lag phase relative to the control without supplement: above the optimum concentration; for effects on the rate of division: below the optimum concentration; for optimum concentration of supplement: concentrations up to 80 μg/ml tested. Here is the method: Part (A) presents results for the TiKa 14D peptide and part (B) presents results for the TiKa 102 peptide.
TiKa 14D and TiKa 102 were tested to identify the optimum concentration of supplement. Results are presented in FIGS. 5A and B for concentrations up to 80 μg/ml. […] Below the optimum concentration, the lag phase was either not affected (10 μg/ml of TiKa 14D) or was inhibited relative to the control (slightly for TiKa 14D at 5 μg/ml and for TiKa 102 at 20 μg/ml).

For test [3], the system named is cultures with different starting OD600 values. Description: Effects of TiKa 14D on cultures with different starting OD600 values (Example 3). The class given is cell-based. The conditions noted are these: 20 μg/ml. Here is the method:
The effects of TiKa 14D on cultures with different starting OD600 values were tested. The TiKa 14D was present at a concentration of 20 μg/ml.
As shown in this Figure, at a starting OD600 of 0.2 TiKa 14D reduced the time to reach an OD600 of 0.6 by 7 days relative to a control without the supplement. At a starting OD600 of approximately 0.4, TiKa 14D reduced the time to reach an OD600 of 0.6 by 2 days relative to the control without the supplement.

The subject of test [4] is Mycobacterium avium subspecies paratuberculosis. Type of test: cell-based. The conditions noted are these: TiKa 14D 20 μg/ml.
Test [5] relates to Mycobacterium tuberculosis.
In a further test the test system is MTB. Description: Time to positivity in BacTAlert liquid media system (Example 4). The class given is cell-based.

Non-standard residues stand in square brackets, D forms with d. No end group written: not given here. βAla = NCCC(=O)O

RRWRIVVIRVRR [TiKa 69]: in test [1], the “effect on MAP test culture (decrease in lag time, increase in division rate)” value is on record as “positive effects”.

Turning to RRWRIVVIRVRR-BB-K(biotin) [TiKa 102], the “effect on MAP test culture (decrease in lag time, increase in division rate)” value in test [1] is recorded as “positive effects”. In test [2], the “doubling time relative to the control” value is listed as “still also reduced”, the “lag phase relative to the control without supplement” value was “still improved”, the “effects on the rate of division” value was “decreased proportionally” and the “optimum concentration of supplement” value was found to be 40 µg/mL. In addition, the “lag phase relative to the control” value in test [2] (below the optimum concentration: 20 μg/ml) is “inhibited”.

For the substance WKIVFWWRR [TiKa 14D], the “effect on MAP test culture (decrease in lag time, increase in division rate)” value in test [1] was “positive effects”. Moreover, the “reduction of the time to reach an OD600 of 0.6 relative to a control without the supplement” value in test [3] (starting OD600 of 0.2) was 7 days. In addition, the “reduction of the time to reach an OD600 of 0.6 relative to a control without the supplement” value in test [3] (starting OD600 of approximately 0.4) was determined as 2 days. For the same substance, in test [2], the “doubling time relative to the control” value is given as “still also reduced”, the “lag phase relative to the control without supplement” value is “still improved”, the “effects on the rate of division” value is “decreased proportionally” and the “optimum concentration of supplement” value was determined as 20 µg/mL. Also, the “lag phase relative to the control” value in test [2] (below the optimum concentration: 5 μg/ml) was “inhibited”. In addition, the “lag phase relative to the control” value in test [2] (below the optimum concentration: 10 μg/ml) was “not affected”. Moreover, the “effect on growth curve” value in test [4] was “positive effects”. Besides, in test [5], the “effect on growth curve” value is recorded as “positive effects”. Further, the “Time to Positivity (TTP) compared to control media” value in the test on MTB was “decreased”.

On to RLARIVVIRVAR-BB-K(biotin) [TiKa 103], for which, in test [1], the “effect on MAP test culture (decrease in lag time, increase in division rate)” value is listed as “positive effects”.

Turning to “RRWRIVVIRVRR-bA-bA-C (RRWRIVVIRVRR[βAla][βAla]C) [TiKa 86]”, the “effect on MAP test culture (decrease in lag time, increase in division rate)” value in test [1] is on record as “positive effects”.
